Our source for the inhibition values is US8269008B2, “Oxazolopyridine and isoxazolopyridine derivatives for use in the treatment of HIF-mediated conditions” (FibroGen, Inc., priority 2007, dated 2012).

In this assay the target is T1, HIF-PH2 (EGLN1) (Homo sapiens, UniProt Q9GZT9).
T1 construct: made in house; host or cells: insect Hi5 cells
Nature of the assay: HIF-PH assay (14CO2 capture, peptide-dependent turnover). The class given is biochemical. The conditions noted are these: Concentration 22.22 μM. The text has this: Ketoglutaric acid α-[1-^14C]-sodium salt, alpha-ketoglutaric acid sodium salt, and HPLC purified peptide may be obtained from commercial sources, e.g., Perkin-Elmer (Wellesley Mass.), Sigma-Aldrich, and SynPep Corp. (Dublin Calif.), respectively. Peptides for use in the assay may be fragments of HIFα as described above or as disclosed in International Publication WO 2005/118836, incorporated by reference herein. For example, a HLF peptide for use in the HIF-PH assay is [methoxycoumarin]-DLDLEALAPYIPADDDFQL-amide. HIF-PH, e.g., HIF-PH2 (EGLN1), can be expressed in, e.g., insect Hi5 cells, and partially purified, e.g., through a SP ion exchange chromatography column. Enzyme activity is determined by capturing ^14CO2 using an assay described by Kivirikko and Myllyla (1982, Methods Enzymol. 82:245-304). Assay reactions contain 50 mM HEPES (pH 7.4), 100 μM α-ketoglutaric acid sodium salt, 0.30 μCi/mL ketoglutaric acid α-[1-^14C]-sodium salt, 40 μM FeSO4, 1 mM ascorbate, 1541.8 units/mL Catalase, with or without 50 μM peptide substrate and various concentrations of compound of the invention. Reactions are initiated by addition of HIF-PH enzyme.
The peptide-dependent percent turnover is calculated by subtracting percent turnover in the absence of peptide from percent turnover in the presence of substrate peptide. Percent inhibition and IC50 are calculated using peptide-dependent percent turnover at given inhibitor concentrations. Calculation of IC50 values for each inhibitor is conducted using GraFit software (Erithacus Software Ltd., Surrey UK). […]

T1 sequence (Q9GZT9 whole entry, species assumed): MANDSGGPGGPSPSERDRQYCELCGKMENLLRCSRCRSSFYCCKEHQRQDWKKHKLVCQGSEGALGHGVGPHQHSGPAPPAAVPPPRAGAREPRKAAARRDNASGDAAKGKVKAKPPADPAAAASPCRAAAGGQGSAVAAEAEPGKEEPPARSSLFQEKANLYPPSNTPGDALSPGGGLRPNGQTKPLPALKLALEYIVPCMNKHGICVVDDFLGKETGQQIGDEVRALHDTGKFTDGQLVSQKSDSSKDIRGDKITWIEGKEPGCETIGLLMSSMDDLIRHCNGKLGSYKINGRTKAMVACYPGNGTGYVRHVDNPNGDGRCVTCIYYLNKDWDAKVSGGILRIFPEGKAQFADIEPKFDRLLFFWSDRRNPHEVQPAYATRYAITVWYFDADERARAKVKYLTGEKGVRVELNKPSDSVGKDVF

The term inhibition denotes how much of the control response was suppressed. Read a low inhibition as a weak effect. In turn, `N#Cc1cccc(-c2noc3cnc(C(=O)NCC(=O)O)c(O)c23)c1` [Example 67, {[3-(3-Cyano-phenyl)-4-hydroxy-isoxazolo[5,4-c]pyridine-5-carbonyl]-amino}-acetic acid] came in with an inhibition at 22.22 µM of 98.4%.
With `N#Cc1ccc(-c2noc3cnc(C(=O)NCC(=O)O)c(O)c23)cc1` [Example 68, {[3-(4-Cyano-phenyl)-4-hydroxy-isoxazolo[5,4-c]pyridine-5-carbonyl]-amino}-acetic acid] the figure was 97.4%; with `O=C(O)CNC(=O)c1ncc2onc(-c3ccc(Oc4ccccc4)cc3)c2c1O` [Example 69, {[4-Hydroxy-3-(4-phenoxy-phenyl)-isoxazolo[5,4-c]pyridine-5-carbonyl]-amino}-acetic acid], 99.8%; with `Cc1noc2cnc(C(=O)NCC(=O)O)c(O)c12` [Example 70, [(4-Hydroxy-3-methyl-isoxazolo[5,4-c]pyridine-5-carbonyl)-amino]-acetic acid], 99.3%.
With `Cc1noc2c(-c3ccccc3)nc(C(=O)NCC(=O)O)c(O)c12` [Example 71, [(4-Hydroxy-3-methyl-7-phenyl-isoxazolo[5,4-c]pyridine-5-carbonyl)-amino]-acetic acid] the figure was 97.5%; with `Cc1nc(C(=O)NCC(=O)O)c(O)c2c(C)noc12` [Example 72, [(4-Hydroxy-3,7-dimethyl-isoxazolo[5,4-c]pyridine-5-carbonyl)-amino]-acetic acid], 94.6%.
With `Cc1nc(C(=O)NCC(=O)O)c(O)c2c(-c3ccc(OC(F)(F)F)cc3)noc12` [Example 73, {[4-Hydroxy-7-methyl-3-(4-trifluoromethoxy-phenyl)-isoxazolo[5,4-c]pyridine-5-carbonyl]-amino}-acetic acid] the figure was 97.4%; with `COc1ccc(-c2noc3c(C)nc(C(=O)NCC(=O)O)c(O)c23)cc1` [Example 74, {[4-Hydroxy-3-(4-methoxy-phenyl)-7-methyl-isoxazolo[5,4-c]pyridine-5-carbonyl]-amino}-acetic acid], 94.4%; with `O=C(O)CNC(=O)c1ncc2onc(-c3ccc(Cl)cc3Cl)c2c1O` [Example 75, {[3-(2,4-Dichloro-phenyl)-4-hydroxy-isoxazolo[5,4-c]pyridine-5-carbonyl]-amino}-acetic acid], 98%.
On to `CS(=O)(=O)c1ccc(-c2noc3cnc(C(=O)NCC(=O)O)c(O)c23)cc1` [Example 76, {[4-Hydroxy-3-(4-methanesulfonyl-phenyl)-isoxazolo[5,4-c]pyridine-5-carbonyl]-amino}-acetic acid], for which at 22.22 µM the inhibition was 99.4%.
